Read-outs that look alike come from different tables or passages of the source.
Experiments:
[1] = PK in rats after i.v. C118P; format: in vivo, SD rats; conditions: rats, plasma, n = 6; for AUC(0-inf) / half-life / clearance / concentration at 30 s: both sexes, rat, in vivo; for AUC(0-inf) / half-life / clearance: iv; for clearance: read-out: CL (converted); for concentration at 30 s: read-out: C2min (C30s for Rat)
Description: The SD rats were supplied by the medical animal experiment center of Chinese People’s Liberation Army Nanjing military region. Twenty-four rats (210–300 g) with half males and half females were divided randomly into four groups. C118P was dissolved in saline to achieve different concentrations for intravenous administration. After fasting overnight, the rats were administered with a single intravenous dose of 5, 10, 20, or 50 mg/kg C118P. Blood samples (approximately 200 μL) were collected in EDTA-coated tubes pre-dose (0), and 30s, 2, 5, 10, 20, 40 min, 1, 2, 4, 8, 12 and 24 h post dose. Plasma was prepared by centrifugation at 8000 rpm for 5 min, and the plasma samples were then prepared and determined by the method described above.
(§1) The area under the plasma-concentration-versus-time curve from 0 to infinite (AUC0-inf), the elimination half-life (t1/2), the systemic plasma clearance (CL) and the volume of distribution (V) were calculated by non-compartmental analysis with WinNonlin software v6.3 (Pharsight Corporation, St. Louis, MO 63144, USA) from the plasma concentration data of C118P and C118, respectively. The instantaneous concentrations after intravenous to rats (C30s) or dogs (C2min) were obtained directly from the observed data.

[2] = Whole blood/plasma ratio; format: in vitro ADME; conditions: in rat; incubation 30 min
Description: The ratio of C118P and C118 in blood and plasma was studied. The whole blood was obtained from healthy volunteer and was separated into two parts to obtain whole blood and plasma. Standard solution was added into whole blood and plasma to mimic the incurred sample. After incubation for 30 min, the whole blood was separated into two parts. One was frozen and thawed to obtain the homogenous whole blood and the other sample was centrifuged to obtain plasma. The samples were analyzed by the established LC-MS/MS method and the blood plasma ratio was calculated.

[3] = Excretion in rats (bile, urine, feces); format: in vivo; conditions: i.v. C118P 20 mg/kg
Description: Twelve rats (weight 220–260 g) with half males and half females were anesthetized with diethyl ether after fasted overnight. A median laparotomy was performed and the bile duct was cannulated with a catheter. After intravenous administration (20 mg/kg) of C118P solution, bile samples were collected at 1, 2, 4, 6, 10 and 24 h in EDTA-coated tubes. The accurate volume of bile samples were measured by weight loss method. A volume of 50 μL of bile was prepared by protein precipitation and determined by the method described above. The total cumulative molar excretion percentage of C118P and C118 in bile of ten rats was calculated according to the total molar amount of C118P and C118 and the dose.
Six rats (weight 200–230 g) with half males and half females were fasted overnight. After intravenous administration (20 mg/kg), urine and feces samples were collected at 12, 24, 36, 48, 60 and 72 h. The feces were collected in 200 mL of EDTA solution (100 mg/mL) and grinded into a suspension. The accurately volume amount of urine and feces samples were measured by weight loss method. A volume of 50 μL of urine or feces suspension was prepared by protein precipitation and determined by the method described above. The cumulative molar excretion percentage of C118P and C118 in urine or feces was calculated according to the concentrations of C118P and C118, the volume of each time period.

[4] = Metabolic stability in liver microsomes; format: in vitro ADME, dog; conditions: dog microsomes (Figure S1)
Description: The in vitro metabolic stability of C118P and C118 were estimated in mice, rat, dog, monkey, and human liver microsomes (Research Institute for Liver Diseases Co. Ltd (Shanghai, China)). The incubation mixture contains C118P or C118, NADP (1.0 mM), G-6-P (10 mM), PDH (2 units/mL), MgCl2 (10 mM), and liver microsomes (mice, rats, dogs, monkeys, or humans, 1.0 mg protein/mL) in phosphate buffer. A total of 200 μL of the mixture was removed and quenched with 600 μL acetonitrile in an ice bath at 0, 15, 30, 60, 120, and 240 min after the addition of NADPH.
CLint, in vitro (the in vitro intrinsic clearance, Equation (1)) was calculated from the t1/2 of C118 disappearance, where Cprotein is the protein concentration during the incubation, and t1/2 was determined by the slope (k) of the log-linear regression analysis of the concentration versus time profiles; thus, t1/2 = ln2/k. […] The in vivo hepatic clearance (CLH, Equation (3)) was then calculated by using CLint and hepatic blood flow, Q ([…] mL·min^−1·kg^−1 in rats, dogs, monkey, and humans, respectively), in the well-stirred liver model disregarding all binding. The hepatic extraction ratio was calculated as CLH divided by Q. CLint, in vitro = (0.693/t1/2) × (1/Cprotein)(1) CLint = CLint, in vitro × (mg protein/g liver weight) × (gliver weight/kg body weight)(2) CLH = (Q × CLint)/(Q + CLint)(3)

[5] = Stability in plasma with EDTA as anticoagulant; format: in vitro ADME
[6] = PK in dogs after i.v. C118P; format: in vivo, beagle dogs; conditions: dogs, plasma, n = 6; for AUC(0-inf) / half-life / clearance / concentration at 2 min: both sexes, beagle, dog, in vivo; for AUC(0-inf) / half-life / clearance: iv; for clearance: read-out: CL (converted); for concentration at 2 min: read-out: C2min
Description: The beagle dogs were purchased from Nanjing Ya Dong experimental animal research center. Twelve beagle dogs with half males and half females were divided randomly into two groups. C118P was dissolved in saline to different concentrations for intravenous administration. After fasting overnight with free access to water, the dogs were administered a single intravenous dose of 1 or 3 mg/kg C118P. After a one-week wash-out period, the group of 1 mg/kg were administered another single intravenous dose of 6 mg/kg C118P. Blood samples (approximately 1 mL) were collected in EDTA-coated tubes at times of 0, 2, 5, 10, 20, 40 min, 1, 2, 4, 8, 12 and 24 h. Plasma was prepared by centrifugation at 8000 rpm for 5 min, and the plasma samples were then prepared and determined by the method described above.
as §1

[7] = Sprague-Dawley, i.v. C118P 10 mg/kg

**Q.** What does the source list for `COc1cc(OC)cc(-c2nc[nH]c2-c2ccc(OC)c(OP(=O)([O-])[O-])c2)c1.[Na+].[Na+]` [C118P]?
**A.** AUC(0-inf) ([1]; SD, i.v. C118P 5 mg/kg): 5740 ± 766 ng·h/mL; half-life ([1]; SD, i.v. C118P 5 mg/kg): 14.4 ± 3 min; clearance ([1]; SD, i.v. C118P 5 mg/kg): 14.7 mL/min/kg; clearance ([1]; SD, i.v. C118P 10 mg/kg): 16.4 mL/min/kg; AUC(0-inf) ([1]; SD, i.v. C118P 20 mg/kg): 18700 ng·h/mL; half-life ([1]; SD, i.v. C118P 20 mg/kg): 22.8 ± 6 min; clearance ([1]; SD, i.v. C118P 20 mg/kg): 18.5 mL/min/kg; AUC(0-inf) ([1]; SD, i.v. C118P 50 mg/kg): 38900 ng·h/mL; half-life ([1]; SD, i.v. C118P 50 mg/kg): 48 ± 34.2 min; clearance ([1]; SD, i.v. C118P 50 mg/kg): 22.3 mL/min/kg; concentration at 30 s ([1]; SD, i.v. C118P 5 mg/kg): 75.6 µg/mL; concentration at 30 s ([1]; SD, i.v. C118P 20 mg/kg): 219 µg/mL; concentration at 30 s ([1]; SD, i.v. C118P 50 mg/kg): 373 µg/mL; AUC(0-inf) [1, 7]: 10400 ng·h/mL; half-life [1, 7]: 12.6 ± 3 min; concentration at 30 s [1, 7]: 134 µg/mL; V ([1]; i.v. C118P 5 mg/kg): 0.3025 ± 0.0611 L/kg; V ([1]; i.v. C118P 10 mg/kg): 0.2994 ± 0.0676 L/kg; V ([1]; i.v. C118P 20 mg/kg): 0.5826 ± 0.1142 L/kg; V ([1]; i.v. C118P 50 mg/kg): 1.5022 ± 1.0658 L/kg; blood plasma ratio at 30 min [2]: 0.8; sulfuric acid conjugation in urine [3]: no sulfuric acid conjugation was found; stability in liver microsomes [4]: not stable; stability in plasma [5]: stable; AUC(0-inf) ([6]; i.v. C118P 1 mg/kg): 1700 ± 346 ng·h/mL; half-life ([6]; i.v. C118P 1 mg/kg): 13.2 ± 5.4 min; clearance ([6]; i.v. C118P 1 mg/kg): 10.2 mL/min/kg; AUC(0-inf) ([6]; i.v. C118P 3 mg/kg): 5300 ± 1700 ng·h/mL; half-life ([6]; i.v. C118P 3 mg/kg): 35.4 ± 9.6 min; clearance ([6]; i.v. C118P 3 mg/kg): 10.1 mL/min/kg; AUC(0-inf) ([6]; i.v. C118P 6 mg/kg): 8530 ± 1550 ng·h/mL; half-life ([6]; i.v. C118P 6 mg/kg): 23.4 ± 7.2 min; clearance ([6]; i.v. C118P 6 mg/kg): 12.1 mL/min/kg; concentration at 2 min ([6]; i.v. C118P 1 mg/kg): 12.3 µg/mL; concentration at 2 min ([6]; i.v. C118P 3 mg/kg): 34.7 µg/mL; concentration at 2 min ([6]; i.v. C118P 6 mg/kg): 64.2 µg/mL; V ([6]; i.v. C118P 1 mg/kg): 0.1817 ± 0.0513 L/kg; V ([6]; i.v. C118P 3 mg/kg): 0.5092 ± 0.162 L/kg; V ([6]; i.v. C118P 6 mg/kg): 0.3985 ± 0.0871 L/kg
